Laboratory results published in patent US20060241182A1, “Antibiotic, functional cosmetic and functional food containing levulinic acid and their derivatives” (priority 2001, published 2006).
Values after ≈ are worked out from the molar mass of the structure shown. Like-named read-outs stand apart in the source and are kept apart here.

Tests used:
Helicobacter pylori = experiment: microbe, parasite or virus in culture
Description: (§1) Wherein, all the bacteria were cultured for 12˜18 hours.
(§2) MIC of levulinic acid was measured on 96 well plates. Media and levulinic acid (200 mg/ml) mixed and diluted 1:2 fold serially. Dilutants were added on 96 well plate. Equal amount of bacterial suspension (10^6 CFU/ml) was added in each well. Wherein the inoculated bacteria were cultured at 30° C. for 12˜18 hours. The proliferations of bacteria on testing medium were measured to determine MIC against the test bacteria.
(§3) Also, in case of anaerobic bacteria, according to the same method as above, cap tubes were used in place of 96 well plates.

[1] = system: Candida albicans KCTC 7753; experiment: microbe, parasite or virus in culture; details: KCTC7753
Description: as §1, §2

[2] = system: Salmonella typhimurium KCTC 1925; experiment: microbe, parasite or virus in culture; details: Salmonella enterica
Description: as §1, §2

[3] = system: mouse fibroblast NIH3T3 cells; details: 52 hours
Description: Cytotoxicity test of levulinic acid was accomplished by using mouse fibroblast NIH3T3 cells as testing cells. The cells were cultured in medium added 16.3 mg/ml, 12.2 mg/ml, 9.8 mg/ml and 4.9 mg/ml of levulinic acid for 52 hours, respectively.

[4] = system: Staphylococcus aureus KCTC 1621; experiment: microbe, parasite or virus in culture; details: KCTC1621
Description: (§4) Staphylococcus aureus KCTC 1621, Pseudomonas aeroginosa KCTC 1636, methicillin-resistant Staphylococcus aureus, Vancomycin resistant Enterococcus and R-Pseudomonas aeroginosa were cultured in tryptic soy broth at 37° C. with shaking.
as §1, §2

[5] = system: vancomycin-resistant Enterococcus; experiment: microbe, parasite or virus in culture
Description: as §4, §1, §2

[6] = system: Pseudomonas aeruginosa KCTC 1636; experiment: microbe, parasite or virus in culture; details: KCTC1636
Description: as §4, §1, §2

[7] = system: Resistant Pseudomonas aeruginosa; experiment: microbe, parasite or virus in culture
Description: as §4, §1, §2

[8] = system: methicillin-resistant Staphylococcus aureus; experiment: microbe, parasite or virus in culture
Description: as §4, §1, §2

[9] = system: Streptococcus salivarius ATCC 13419; experiment: microbe, parasite or virus in culture; details: ATCC13419
Description: (§5) Lactococcus garvieae YT-3, Edwardsiella tarda GY-01, Vibrio anguillarum YT-85805, Enterococcus faecium KCTC 3095 and tooth-decaying bacteria of Streptococcus spp. were cultured in Brain heart infusion media at 37° C. with shaking. Anaerobic tooth-decaying bacteria, Streptococcus spp., were cultured with standing in gas generating kit. Anaerobic Propionibacterium acnes KCTC 3326, was cultured in GAM media with standing in gas generating kit.
as §1, §2, §3

[10] = system: Streptococcus doweni Mfe28; experiment: microbe, parasite or virus in culture
Description: as §5, §1, §2, §3

[11] = system: Streptococcus mutans HS-6; experiment: microbe, parasite or virus in culture; details: HS6
Description: as §5, §1, §2, §3

[12] = system: Streptococcus mutans GS-5; experiment: microbe, parasite or virus in culture; details: GS5
Description: as §5, §1, §2, §3

[13] = system: Streptococcus mutans OMZ-175; experiment: microbe, parasite or virus in culture; details: OMZ175
Description: as §5, §1, §2, §3

[14] = system: Propionibacterium acnes KCTC 3326; experiment: microbe, parasite or virus in culture; details: Cutibacterium acnes, KCTC3326
Description: as §5, §1, §2, §3

[15] = system: Streptococcus mutans LM-7; experiment: microbe, parasite or virus in culture; details: LM7
Description: as §5, §1, §2, §3

[16] = system: Streptococcus sobrinus coykendall 6715-1 ATCC 27352; experiment: microbe, parasite or virus in culture; details: ATCC27352
Description: as §5, §1, §2, §3

[17] = system: Streptococcus mutans Ingbritt; experiment: microbe, parasite or virus in culture
Description: as §5, §1, §2, §3

[18] = system: Streptococcus mutans OMZ-176; experiment: microbe, parasite or virus in culture; details: OMZ176
Description: as §5, §1, §2, §3

Streptococcus mutans BHT = experiment: microbe, parasite or virus in culture
Description: as §5, §1, §2, §3

[19] = system: Streptococcus mutans KCTC 3065; experiment: microbe, parasite or virus in culture; details: KCTC3065
Description: as §5, §1, §2, §3

Edwardsiella tarda GY-01 = experiment: microbe, parasite or virus in culture; details: GY01
Description: as §5, §1, §2

[20] = system: Vibrio anguillarum YT-85805; experiment: microbe, parasite or virus in culture; details: YT85805
Description: as §5, §1, §2

[21] = system: Enterococcus faecium KCTC 3095; experiment: microbe, parasite or virus in culture; details: KCTC3095
Description: as §5, §1, §2

[22] = system: Lactococcus garvieae YT-3; experiment: microbe, parasite or virus in culture; details: YT3
Description: as §5, §1, §2

[23] = system: general bacteria and yeast; details: summary of Table 4
Description: (§6) Also, Bacillus cereus KCTC 1014, Bacillus subtillis IFO 3007, Escherichia coli O 157 and Escherichia coli 1039 were cultured in complex media (0.8% of nutrient broth, 1% of yeast extract, 2% of NaCl and 0.02% of dextrose) at 37° C. with shaking.
(§7) Saccharomyces cerevisiae breneri hefe rasse VIII and Hansenula anomala IFO 0149 were cultured in complex medium (0.3% of yeast extract, 0.3% of nutrient broth, 0.5% of peptone and 0.1% of glucose) at 25° C. with shaking.
as §1, §2

Escherichia coli O157 = experiment: MIC of levulinic acid, serial dilution on 96 well plates; type: cell-based
Description: as §6, §1, §2

drug-resistant bacteria = details: summary of Table 1
Description: as §4, §5, §1, §2

[24] = system: pathogen infecting finny tribe and poultry; details: summary of Table 2
Description: as §5, §1, §2

[25] = system: Escherichia coli KCTC 1039; experiment: microbe, parasite or virus in culture; details: KCTC1039
Description: as §6, §1, §2

[26] = system: Bacillus subtilis IF0 3007; experiment: microbe, parasite or virus in culture; details: IF03007
Description: as §6, §1, §2

[27] = system: Bacillus cereus KCTC 1014; experiment: microbe, parasite or virus in culture; details: KCTC1014
Description: as §6, §1, §2

tooth-decaying bacteria = details: summary of Table 3
Description: as §5, §1, §2, §3

[28] = system: Saccharomyces cerevisiae breneri heferasse VII; experiment: microbe, parasite or virus in culture
Description: as §7, §1, §2

[29] = system: Hansenula anomala IFO 0149; experiment: microbe, parasite or virus in culture; details: IFO0149
Description: as §7, §1, §2

**Q.** What does the source list for `CC(=O)CCC(=O)O` [levulinic acid]?
**A.** MIC (Helicobacter pylori): 0.78 µg/mL (≈ 0.00672 mM); MIC [1]: 6000 µg/mL (≈ 51.7 mM); MIC [2]: 370 µg/mL (≈ 3.19 mM); Cytotoxicity: death / growth of the cells ([3]; medium added 9.8 mg/ml levulinic acid): not died, but their growth were inhibited; Cytotoxicity: growth of the cells versus control cells ([3]; medium containing 4.9 mg/ml levulinic acid): no difference from one of control cells; Cytotoxicity: death / growth of the cells ([3]; medium containing 12.2 mg/ml levulinic acid): died, or their growth were inhibited; Cytotoxicity: death / growth of the cells ([3]; medium containing 16.3 mg/ml levulinic acid): died, or their growth were inhibited; MIC [4]: 3500 µg/mL (≈ 30.1 mM); MIC [5]: 3000 µg/mL (≈ 25.8 mM); MIC [6]: 1500 µg/mL (≈ 12.9 mM); MIC [7]: 2500 µg/mL (≈ 21.5 mM); MIC [8]: 4000 µg/mL (≈ 34.4 mM); MIC [9]: 4000 µg/mL (≈ 34.4 mM); MIC [10]: 4000 µg/mL (≈ 34.4 mM); MIC [11]: 4000 µg/mL (≈ 34.4 mM); MIC [12]: 5000 µg/mL (≈ 43.1 mM); MIC [13]: 4000 µg/mL (≈ 34.4 mM); MIC [14]: 6000 µg/mL (≈ 51.7 mM); MIC [15]: 4000 µg/mL (≈ 34.4 mM); MIC [16]: 4000 µg/mL (≈ 34.4 mM); MIC [17]: 4000 µg/mL (≈ 34.4 mM); MIC [18]: 5000 µg/mL (≈ 43.1 mM); MIC (Streptococcus mutans BHT): 4000 µg/mL (≈ 34.4 mM); MIC [19]: 4000 µg/mL (≈ 34.4 mM); MIC (Edwardsiella tarda GY-01): 3500 µg/mL (≈ 30.1 mM); MIC [20]: 3000 µg/mL (≈ 25.8 mM); MIC [21]: 4500 µg/mL (≈ 38.8 mM); MIC [22]: 3500 µg/mL (≈ 30.1 mM); MIC against general bacteria and yeast (range over Table 4) [23]: 1.5˜6 mg/ml; MIC (Escherichia coli O157): 2000 µg/mL; MIC against drug-resistant bacteria (range over Table 1) (drug-resistant bacteria): 1.5˜4.5 mg/ml; MIC against pathogen infecting finny tribe and poultry (range over Table 2) [24]: 0.37˜3.5 mg/ml; MIC [25]: 2000 µg/mL (≈ 17.2 mM); MIC [26]: 1500 µg/mL (≈ 12.9 mM); MIC [27]: 1500 µg/mL (≈ 12.9 mM); MIC against tooth-decaying bacteria (range over Table 3) (tooth-decaying bacteria): 4˜5 mg/ml; MIC [28]: 2500 µg/mL (≈ 21.5 mM); MIC [29]: 3500 µg/mL (≈ 30.1 mM)
